Results published in paper PMC3119665, “A New Drug Design Targeting the Adenosinergic System for Huntington's Disease” (PLoS ONE, 2011).
pEC50: −log10 of the molar value.

Key:
[1] = target: T1, Serotonin (5-Hydroxytryptamine) 5-HT1B (Rattus norvegicus, UniProt P28564); assay: Radioligand binding panel (Table S1); settings: 10 μM T1-11, n 2
T1 construct: purchased MDS Pharma Services Taiwan

[2] = system: Glycine, Strychnine-Sensitive; assay: Radioligand binding panel (Table S1); parameters: species or system rat; settings: 10 μM T1-11, n 2
[3] = system: Glutamate, NMDA, Phencyclidine; assay: Radioligand binding panel (Table S1); parameters: species or system rat; settings: 10 μM T1-11, n 2
Dopamine D2L = target: T2, Dopamine D2L (Homo sapiens, UniProt P14416); assay: Radioligand binding panel (Table S1); settings: 10 μM T1-11, n 2
T2 construct: purchased MDS Pharma Services Taiwan
T2 sequence (P14416 whole entry): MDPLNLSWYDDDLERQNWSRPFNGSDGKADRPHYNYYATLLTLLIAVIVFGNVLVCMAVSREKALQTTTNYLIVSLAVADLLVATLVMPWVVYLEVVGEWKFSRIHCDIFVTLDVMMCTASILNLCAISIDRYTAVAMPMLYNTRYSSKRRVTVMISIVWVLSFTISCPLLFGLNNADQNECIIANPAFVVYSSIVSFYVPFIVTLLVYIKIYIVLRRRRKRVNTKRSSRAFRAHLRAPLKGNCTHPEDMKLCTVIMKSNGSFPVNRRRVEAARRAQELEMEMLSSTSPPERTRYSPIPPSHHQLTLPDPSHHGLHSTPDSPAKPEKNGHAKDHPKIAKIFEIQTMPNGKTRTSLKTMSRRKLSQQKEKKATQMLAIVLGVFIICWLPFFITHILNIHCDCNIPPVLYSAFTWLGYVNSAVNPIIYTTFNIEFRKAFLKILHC

Muscarinic M1 = target: T3, Muscarinic M1 (Homo sapiens, UniProt P11229); assay: Radioligand binding panel (Table S1); settings: 10 μM T1-11, n 2
T3 construct: purchased MDS Pharma Services Taiwan
T3 sequence (P11229 whole entry): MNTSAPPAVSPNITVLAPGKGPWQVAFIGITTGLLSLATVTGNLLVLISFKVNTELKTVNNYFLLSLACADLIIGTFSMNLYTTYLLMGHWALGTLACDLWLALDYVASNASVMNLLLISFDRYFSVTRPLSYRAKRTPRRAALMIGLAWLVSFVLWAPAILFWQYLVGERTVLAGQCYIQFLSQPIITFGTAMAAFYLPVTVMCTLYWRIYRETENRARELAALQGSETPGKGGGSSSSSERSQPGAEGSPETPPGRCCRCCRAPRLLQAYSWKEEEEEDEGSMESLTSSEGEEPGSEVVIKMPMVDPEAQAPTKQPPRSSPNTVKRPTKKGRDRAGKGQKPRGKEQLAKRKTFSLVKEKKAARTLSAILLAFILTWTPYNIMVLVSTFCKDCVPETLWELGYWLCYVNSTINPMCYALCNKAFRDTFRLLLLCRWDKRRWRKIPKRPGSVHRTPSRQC

Phosphodiesterase PDE5 = target: T4, Phosphodiesterase PDE5 (Homo sapiens, UniProt O76074); assay: Radioligand binding panel (Table S1); settings: 10 μM T1-11, n 2
T4 construct: purchased MDS Pharma Services Taiwan

[4] = system: Tumor Necrosis Factor (TNF), Non-Selective; assay: Radioligand binding panel (Table S1); parameters: species or system human; settings: 10 μM T1-11, n 2
[5] = system: Imidazoline I2, Peripheral; assay: Radioligand binding panel (Table S1); parameters: species or system rat; settings: 10 μM T1-11, n 2
Prostanoid CRTH2 = target: T5, Prostanoid CRTH2 (Homo sapiens, UniProt Q9Y5Y4); assay: Radioligand binding panel (Table S1); settings: 10 μM T1-11, n 2
T5 construct: purchased MDS Pharma Services Taiwan

[6] = target: T6, N-Formyl Peptide Receptor-like, FPRL1 (Homo sapiens, UniProt P25090); assay: Radioligand binding panel (Table S1); settings: 10 μM T1-11, n 2
T6 construct: purchased MDS Pharma Services Taiwan
T6 sequence (P25090 whole entry): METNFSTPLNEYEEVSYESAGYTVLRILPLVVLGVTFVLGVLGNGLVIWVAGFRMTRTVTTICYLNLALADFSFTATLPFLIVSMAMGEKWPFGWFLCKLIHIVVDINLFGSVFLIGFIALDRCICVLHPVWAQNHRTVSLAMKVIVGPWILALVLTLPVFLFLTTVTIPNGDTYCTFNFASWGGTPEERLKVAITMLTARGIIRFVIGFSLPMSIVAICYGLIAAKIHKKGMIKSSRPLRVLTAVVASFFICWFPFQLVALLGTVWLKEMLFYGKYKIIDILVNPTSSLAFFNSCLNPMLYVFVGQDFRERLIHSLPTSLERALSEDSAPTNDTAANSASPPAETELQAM

Muscarinic M5 = target: T7, Muscarinic M5 (Homo sapiens, UniProt P08912); assay: Radioligand binding panel (Table S1); settings: 10 μM T1-11, n 2
T7 construct: purchased MDS Pharma Services Taiwan
T7 sequence (P08912 whole entry): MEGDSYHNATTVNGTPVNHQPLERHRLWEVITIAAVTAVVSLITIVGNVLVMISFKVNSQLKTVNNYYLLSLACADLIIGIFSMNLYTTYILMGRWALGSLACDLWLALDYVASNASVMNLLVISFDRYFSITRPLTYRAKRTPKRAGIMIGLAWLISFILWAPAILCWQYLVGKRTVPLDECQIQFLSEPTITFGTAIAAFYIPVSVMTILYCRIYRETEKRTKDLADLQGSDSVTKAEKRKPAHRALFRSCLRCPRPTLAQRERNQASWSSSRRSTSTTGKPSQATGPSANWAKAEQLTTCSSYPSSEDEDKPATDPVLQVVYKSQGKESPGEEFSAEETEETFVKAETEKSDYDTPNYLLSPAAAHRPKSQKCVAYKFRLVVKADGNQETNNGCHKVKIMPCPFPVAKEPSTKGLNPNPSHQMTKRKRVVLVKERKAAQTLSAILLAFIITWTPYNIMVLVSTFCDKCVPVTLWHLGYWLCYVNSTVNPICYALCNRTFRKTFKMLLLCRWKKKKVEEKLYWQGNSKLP

Bombesin BB2 = target: T8, Bombesin BB2 (Homo sapiens, UniProt P30550); assay: Radioligand binding panel (Table S1); settings: 10 μM T1-11, n 2
T8 construct: purchased MDS Pharma Services Taiwan
T8 sequence (P30550 whole entry): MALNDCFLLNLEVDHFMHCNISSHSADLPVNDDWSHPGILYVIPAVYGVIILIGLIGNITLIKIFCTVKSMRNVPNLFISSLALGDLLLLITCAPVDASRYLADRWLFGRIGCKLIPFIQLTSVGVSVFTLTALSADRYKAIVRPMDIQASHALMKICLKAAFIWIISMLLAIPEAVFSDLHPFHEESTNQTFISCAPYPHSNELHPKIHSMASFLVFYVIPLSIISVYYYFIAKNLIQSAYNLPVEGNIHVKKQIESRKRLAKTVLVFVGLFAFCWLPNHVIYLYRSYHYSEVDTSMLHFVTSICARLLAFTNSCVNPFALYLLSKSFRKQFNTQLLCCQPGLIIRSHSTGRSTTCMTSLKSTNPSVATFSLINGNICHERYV

Bradykinin B2 = target: T9, Bradykinin B2 (Homo sapiens, UniProt P30411); assay: Radioligand binding panel (Table S1); settings: 10 μM T1-11, n 2
T9 construct: purchased MDS Pharma Services Taiwan
T9 sequence (P30411 whole entry): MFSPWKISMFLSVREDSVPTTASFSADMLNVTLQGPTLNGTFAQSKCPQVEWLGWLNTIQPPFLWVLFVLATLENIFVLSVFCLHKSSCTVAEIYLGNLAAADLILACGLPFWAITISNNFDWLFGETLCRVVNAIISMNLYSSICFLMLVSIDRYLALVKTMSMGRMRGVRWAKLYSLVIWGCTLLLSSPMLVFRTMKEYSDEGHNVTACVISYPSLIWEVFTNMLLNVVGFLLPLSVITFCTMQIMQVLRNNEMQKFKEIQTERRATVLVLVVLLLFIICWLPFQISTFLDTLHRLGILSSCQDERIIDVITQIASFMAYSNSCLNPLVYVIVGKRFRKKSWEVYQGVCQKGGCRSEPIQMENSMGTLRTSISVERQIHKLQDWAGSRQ

Melanocortin MC1 = target: T10, Melanocortin MC1 (Homo sapiens, UniProt Q01726); assay: Radioligand binding panel (Table S1); settings: 10 μM T1-11, n 2
T10 construct: purchased MDS Pharma Services Taiwan
T10 sequence (Q01726 whole entry): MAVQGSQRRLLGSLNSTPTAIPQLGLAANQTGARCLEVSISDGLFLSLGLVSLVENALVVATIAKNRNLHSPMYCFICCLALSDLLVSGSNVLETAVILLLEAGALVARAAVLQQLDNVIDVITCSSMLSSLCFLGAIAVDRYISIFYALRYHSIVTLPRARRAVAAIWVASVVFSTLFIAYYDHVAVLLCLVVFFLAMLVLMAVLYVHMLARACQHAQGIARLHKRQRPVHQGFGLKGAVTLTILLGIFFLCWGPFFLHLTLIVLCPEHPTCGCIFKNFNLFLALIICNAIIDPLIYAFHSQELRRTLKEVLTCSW

human A3R = target: T11, human A3R (Homo sapiens, UniProt P0DMS8); assay: GTPγS binding assay; assay type: biochemical
T11 construct: host or cells: CHO-K1
T11 sequence (P0DMS8 whole entry): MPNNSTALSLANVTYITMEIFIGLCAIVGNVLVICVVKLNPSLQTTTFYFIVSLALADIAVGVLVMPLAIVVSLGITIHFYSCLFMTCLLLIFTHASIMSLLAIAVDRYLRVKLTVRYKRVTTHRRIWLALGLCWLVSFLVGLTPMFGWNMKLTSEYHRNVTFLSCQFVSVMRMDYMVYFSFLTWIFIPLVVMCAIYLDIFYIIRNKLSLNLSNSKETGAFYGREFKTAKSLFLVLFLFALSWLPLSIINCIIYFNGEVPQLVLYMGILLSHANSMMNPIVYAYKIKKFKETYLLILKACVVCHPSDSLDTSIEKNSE
Description: The GTPγS binding assay was conducted by MDS Pharma Services Taiwan using a previously described protocol with slight modifications. In brief, membrane proteins collected from Chinese hamster ovary (CHO-K1) cells expressing the human A3R (5∼10 µg per reaction) were incubated with the indicated drug and ^35S-GTPγS (0.1 nM) in a total volume of 500 µl for 30 min at 30°C. The reaction buffer was composed of 20 mM HEPES (pH 7.4), 100 mM NaCl, 10 mM MgCl2, 1 mM DTT, and 1 mM EDTA. The reaction was terminated by filtration over GF/B glass fibers and washed with the same reaction buffer. Relative GTPγS binding was defined as the percentage of ^35S-GTPγS binding when compared to that of a selective agonist of the A3R (2-Cl-IB-MECA, 3 µM) under the same binding conditions.
Supplementary file pone.0020934.s004.tif: Figure S4 T1-11 binds to the A3 adenosine receptor (A3R) without evoking a significant binding of GTP. Membrane fractions collected from CHO-K1 cells expressing the human A3R were incubated with T1-11 at the indicated concentration and ^35S-GTPγS (0.1 nM) for 30 min at 30°C. Relative GTPγS binding was defined as the percentage of ^35S-GTPγS binding when compared with a selective agonist of the A3R (2-Cl-IB-MECA, 3 µM). (TIF) Click here for additional data file.

[7] = system: GABAA, Benzodiazepine, Central, Ro-15-1788; assay: Radioligand binding panel (Table S1); parameters: species or system rat; settings: 10 μM T1-11, n 2
[8] = target: T12, Epidermal Growth Factor (EGF) (Homo sapiens, UniProt P00533); assay: Radioligand binding panel (Table S1); settings: 10 μM T1-11, n 2
T12 construct: purchased MDS Pharma Services Taiwan

GABAB1B = target: T13, GABAB1B (Homo sapiens, UniProt Q9UBS5); assay: Radioligand binding panel (Table S1); settings: 10 μM T1-11, n 2
T13 construct: purchased MDS Pharma Services Taiwan

Neurotensin NT 1 = target: T14, Neurotensin NT 1 (Homo sapiens, UniProt P30989); assay: Radioligand binding panel (Table S1); settings: 10 μM T1-11, n 2
T14 construct: purchased MDS Pharma Services Taiwan
T14 sequence (P30989 whole entry): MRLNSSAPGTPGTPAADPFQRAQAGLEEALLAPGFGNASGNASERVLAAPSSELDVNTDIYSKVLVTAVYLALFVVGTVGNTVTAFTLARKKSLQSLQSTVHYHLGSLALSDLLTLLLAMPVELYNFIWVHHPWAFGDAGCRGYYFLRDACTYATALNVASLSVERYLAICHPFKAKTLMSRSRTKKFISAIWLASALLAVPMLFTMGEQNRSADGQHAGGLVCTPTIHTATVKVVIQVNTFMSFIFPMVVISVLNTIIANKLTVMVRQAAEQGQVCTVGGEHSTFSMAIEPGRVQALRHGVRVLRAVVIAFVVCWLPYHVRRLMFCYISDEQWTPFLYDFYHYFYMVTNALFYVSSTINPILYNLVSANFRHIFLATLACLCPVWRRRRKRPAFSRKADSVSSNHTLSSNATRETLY

Transporter, GABA = target: T15, Transporter, GABA (Rattus norvegicus, UniProt P23978); assay: Radioligand binding panel (Table S1); settings: 10 μM T1-11, n 2
T15 construct: purchased MDS Pharma Services Taiwan

A2AR [9] = target: T16, A2AR (Mus musculus, UniProt Q60613); assay: cAMP level in the brain after intraperitoneal injection; assay type: in vivo; settings: single intraperitoneal injection 5 mg/kg body weight, 60 min, wildtype and A2AR knockout mice
T16 construct: Brain tissues were carefully removed, and homogenized in 1 ml of assay buffer; from tissue; host or cells: brain of C57BL6 mice (in vivo dosing)
T16 sequence (Q60613 whole entry): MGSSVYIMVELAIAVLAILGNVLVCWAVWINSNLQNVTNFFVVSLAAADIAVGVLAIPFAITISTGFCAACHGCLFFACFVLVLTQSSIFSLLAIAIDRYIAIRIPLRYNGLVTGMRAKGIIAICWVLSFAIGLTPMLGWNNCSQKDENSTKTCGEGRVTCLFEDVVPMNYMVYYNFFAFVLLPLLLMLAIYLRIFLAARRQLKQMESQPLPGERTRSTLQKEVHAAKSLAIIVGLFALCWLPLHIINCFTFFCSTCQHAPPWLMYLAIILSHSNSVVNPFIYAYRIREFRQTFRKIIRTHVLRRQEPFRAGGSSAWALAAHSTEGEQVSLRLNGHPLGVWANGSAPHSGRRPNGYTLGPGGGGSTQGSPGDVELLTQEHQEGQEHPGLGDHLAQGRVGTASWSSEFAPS
Description: C57BL6 mice (8 weeks old) were intraperitoneally (i.p.) administrated with T1-11 (5 mg/kg body weight, n = 4) or vehicle for 60 min. Brain tissues were carefully removed, and homogenized in 1 ml of assay buffer (25 mM Tris (pH 8), 1 mM EGTA, 1 mM MgCl2, […], […], 10 nM okadaic acid, 1× EDTA free proteinase inhibitor cocktail (Roche), 0.5 mM IBMX, and […]). Trichloroacetic acid (6%, final concentration) was then added to the lysate to precipitate proteins. The cAMP level in the supernatant was analyzed as previously described.

A2AR [10] = target: T17, A2AR (Rattus norvegicus, UniProt P30543); assay: cAMP assay in PC12 cells; assay type: cell-based
T17 construct: Treatment of PC12 cells with T1-11 dose-dependently elevated the cellular cAMP levels; endogenous in cells; host or cells: PC12
T17 sequence (P30543 whole entry): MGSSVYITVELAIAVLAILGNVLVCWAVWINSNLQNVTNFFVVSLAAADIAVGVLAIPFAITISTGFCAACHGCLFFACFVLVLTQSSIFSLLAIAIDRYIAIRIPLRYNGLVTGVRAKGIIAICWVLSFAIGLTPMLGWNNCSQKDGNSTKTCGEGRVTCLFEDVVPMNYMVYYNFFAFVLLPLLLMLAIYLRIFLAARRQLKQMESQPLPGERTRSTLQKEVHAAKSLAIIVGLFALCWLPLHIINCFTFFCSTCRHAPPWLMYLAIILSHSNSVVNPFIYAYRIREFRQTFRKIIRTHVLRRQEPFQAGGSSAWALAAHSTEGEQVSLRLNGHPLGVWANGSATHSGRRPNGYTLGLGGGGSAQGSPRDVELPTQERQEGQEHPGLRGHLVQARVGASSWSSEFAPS
Description: PC12 cells were plated at the density of 5×10^5 cells/well (on 12-well plates) and incubated with the indicated reagent(s) for the desired period of time. Cells were washed twice with ice-cold Locke's solution (150 mM NaCl, 5.6 mM KCl, 5 mM glucose, 1 mM MgCl2, and 10 mM HEPES, adjusted to pH 7.4). Cellular cAMP was extracted by adding 0.3 ml of 0.1 M HCl to each well and incubating this for 10 min on ice.

Chemokine CXCR2 (IL-8RB) = target: T18, Chemokine CXCR2 (IL-8RB) (Homo sapiens, UniProt P25025); assay: Radioligand binding panel (Table S1); settings: 10 μM T1-11, n 2
T18 construct: purchased MDS Pharma Services Taiwan

Androgen (Testosterone) = assay: Radioligand binding panel (Table S1); parameters: species or system human; settings: 10 μM T1-11, n 2
[11] = system: Adrenergic α 1, Non-Selective; assay: Radioligand binding panel (Table S1); parameters: species or system rat; settings: 10 μM T1-11, n 2
Anaphylatoxin C5a = target: T19, Anaphylatoxin C5a (Homo sapiens, UniProt P21730); assay: Radioligand binding panel (Table S1); settings: 10 μM T1-11, n 2
T19 construct: purchased MDS Pharma Services Taiwan

T1 sequence (P28564 whole entry): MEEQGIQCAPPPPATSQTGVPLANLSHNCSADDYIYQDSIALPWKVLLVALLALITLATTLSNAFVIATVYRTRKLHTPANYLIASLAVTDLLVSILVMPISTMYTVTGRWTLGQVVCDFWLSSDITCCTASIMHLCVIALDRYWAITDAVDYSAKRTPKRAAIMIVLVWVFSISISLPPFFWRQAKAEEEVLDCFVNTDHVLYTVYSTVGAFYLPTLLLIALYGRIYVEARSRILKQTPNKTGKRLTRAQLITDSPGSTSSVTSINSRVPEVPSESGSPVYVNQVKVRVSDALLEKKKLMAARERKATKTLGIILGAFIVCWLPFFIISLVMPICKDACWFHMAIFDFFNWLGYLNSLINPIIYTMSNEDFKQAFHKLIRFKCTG

OC[C@H]1O[C@@H](n2cnc3c(NCc4ccc(O)cc4)ncnc32)[C@H](O)[C@@H]1O [T1-11, N ^6-(4-hydroxybenzyl)adenine riboside]
inhibition at 10 µM [1]: 3% | % Inhibition [2]: 10% | % Inhibition [3]: -2% | inhibition at 10 µM (Dopamine D2L): 13% | inhibition at 10 µM (Muscarinic M1): -1% | inhibition at 10 µM (Phosphodiesterase PDE5): 4% | % Inhibition [4]: -2% | % Inhibition [5]: 10% | inhibition at 10 µM (Prostanoid CRTH2): 0% | inhibition at 10 µM [6]: 5% | inhibition at 10 µM (Muscarinic M5): 0% | inhibition at 10 µM (Bombesin BB2): 3% | inhibition at 10 µM (Bradykinin B2): -9% | inhibition at 10 µM (Melanocortin MC1): 3% | GTP binding compared to 2-Cl-IB-MECA (3 µM) (human A3R; 100 µM T1-11): less than 50% | Function (human A3R; A3 adenosine receptor, GTPγS binding, n.s. = not significant): n.s. | % Inhibition [7]: 1% | inhibition at 10 µM [8]: -5% | inhibition at 10 µM (GABAB1B): -5% | inhibition at 10 µM (Neurotensin NT 1): 11% | inhibition at 10 µM (Transporter, GABA): 8% | cAMP levels in the brain (A2AR [9]): increased cAMP levels in the brains of wildtype, but not A2AR knockout | Function (A2AR [10]; A2A adenosine receptor, elevates cellular cAMP levels): agonist | pEC50 (A2AR [10]; PC12 cells, 20 min at RT, read-out: EC50, elevation of cellular cAMP levels): ~5.66 | inhibition at 10 µM (Chemokine CXCR2 (IL-8RB)): 0% | % Inhibition (Androgen (Testosterone)): 3% | % Inhibition [11]: -3% | inhibition at 10 µM (Anaphylatoxin C5a): 2%
